Where “and” joins values, the source holds several entries; their conditions need not be identical. Equal values may be shown once. Where a name gives a salt, the structure may show the parent alone. Read-outs that look alike come from different tables or passages of the source.
Tests used:
male rats = test: Food maintained (operant) responding; assay type: in vivo, rat; conditions: 40 mg/kg i.p.
Protocol: For food maintained responding studies, food access was restricted such that rats were maintained at 90% of their normal body weight until responding stabilized, at which point rats were provided 12–15 g of rodent chow in addition to the food pellets earned during the experimental session.
Rats were lever trained as described in the general methods. Responding was maintained as described with notable difference in timeout (TO) period 6 min and sessions lasting 2 h or until a maximum of 20 pellets was delivered. […] Responding was considered stable when variation in the number of reinforcers for three consecutive sessions was less than 20%. For the group receiving oxa-noribogaine, data were analyzed using a two-way ANOVA with Šidák’s multiple comparisons test for post hoc comparison.

male Fisher F-344 rats = test: Morphine intravenous self-administration; assay type: in vivo, rat; conditions: for self-administration per session, individual animals (Fig. S9a): 40 mg/kg
hKOR [1] = molecular target: T1, hKOR (Homo sapiens, UniProt P41145); test: KOR [35S]GTPγS agonist assay (commercial); assay type: biochemical; conditions: agonist, n = 1
T1 construct: expressed in transfected cells; host or cells: HEK-293T, transient (PEI)
T1 sequence (P41145 whole entry): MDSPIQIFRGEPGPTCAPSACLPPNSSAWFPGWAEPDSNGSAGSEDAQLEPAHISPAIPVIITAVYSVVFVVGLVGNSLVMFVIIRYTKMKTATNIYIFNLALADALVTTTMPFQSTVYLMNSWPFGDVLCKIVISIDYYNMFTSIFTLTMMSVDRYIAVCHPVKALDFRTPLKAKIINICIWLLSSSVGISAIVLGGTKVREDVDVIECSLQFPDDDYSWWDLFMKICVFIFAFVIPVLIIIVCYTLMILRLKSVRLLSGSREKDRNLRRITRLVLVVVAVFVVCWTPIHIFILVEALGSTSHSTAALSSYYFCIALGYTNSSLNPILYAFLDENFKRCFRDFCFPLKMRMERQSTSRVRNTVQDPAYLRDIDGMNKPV

in vitro = conditions: human, pH 7.4
hKOR [2] = molecular target: T1, hKOR; test: G protein activation BRET assay; assay type: cell-based; conditions: for response, Fig. S5b concentration-response point (replicates): Log [Drug]
rKOR = molecular target: T2, rKOR (Rattus norvegicus, UniProt P34975); test: Nanobody Nb33 sensor recruitment BRET assay; assay type: cell-based; conditions: for response, Fig. S5c concentration-response point (replicates): Log [Drug]
T2 construct: signal peptide (N); expressed in transfected cells; host or cells: HEK-293T, transient (PEI)
T2 sequence (P34975 whole entry): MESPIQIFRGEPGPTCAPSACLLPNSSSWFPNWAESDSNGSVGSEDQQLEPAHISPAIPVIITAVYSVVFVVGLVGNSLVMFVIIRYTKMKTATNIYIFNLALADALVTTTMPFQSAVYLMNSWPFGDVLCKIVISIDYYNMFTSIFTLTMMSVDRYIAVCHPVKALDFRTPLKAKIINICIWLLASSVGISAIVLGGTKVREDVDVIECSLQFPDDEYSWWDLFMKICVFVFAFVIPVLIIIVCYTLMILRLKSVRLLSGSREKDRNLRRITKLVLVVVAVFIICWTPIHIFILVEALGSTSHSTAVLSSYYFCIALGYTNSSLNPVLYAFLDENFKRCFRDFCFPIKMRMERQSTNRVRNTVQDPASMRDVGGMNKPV

[3] = molecular target: T3, human nicotinic acetylcholine receptor (nAChR α3β4) (Homo sapiens, UniProt P30926+P32297); test: nAChR α3β4 inhibition, electrophysiology (commercial); assay type: cell-based
T3 construct: purchased contracted research organization (eurofinsdiscoveryservices.com) item CYL8057IF2
T3 sequence (P32297 32-505): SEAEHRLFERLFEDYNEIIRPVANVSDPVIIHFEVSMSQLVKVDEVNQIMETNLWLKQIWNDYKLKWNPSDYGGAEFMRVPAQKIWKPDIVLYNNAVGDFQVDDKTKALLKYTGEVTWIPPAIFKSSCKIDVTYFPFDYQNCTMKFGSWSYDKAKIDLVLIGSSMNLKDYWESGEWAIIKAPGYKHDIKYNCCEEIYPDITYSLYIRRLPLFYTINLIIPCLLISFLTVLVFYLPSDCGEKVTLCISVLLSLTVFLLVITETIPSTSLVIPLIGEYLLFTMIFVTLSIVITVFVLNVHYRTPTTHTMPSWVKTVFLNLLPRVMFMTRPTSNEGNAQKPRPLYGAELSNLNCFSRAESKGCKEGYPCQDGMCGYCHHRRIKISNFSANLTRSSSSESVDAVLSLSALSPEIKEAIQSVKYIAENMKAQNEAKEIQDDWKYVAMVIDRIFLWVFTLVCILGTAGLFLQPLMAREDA
T3 sequence (P30926 22-498): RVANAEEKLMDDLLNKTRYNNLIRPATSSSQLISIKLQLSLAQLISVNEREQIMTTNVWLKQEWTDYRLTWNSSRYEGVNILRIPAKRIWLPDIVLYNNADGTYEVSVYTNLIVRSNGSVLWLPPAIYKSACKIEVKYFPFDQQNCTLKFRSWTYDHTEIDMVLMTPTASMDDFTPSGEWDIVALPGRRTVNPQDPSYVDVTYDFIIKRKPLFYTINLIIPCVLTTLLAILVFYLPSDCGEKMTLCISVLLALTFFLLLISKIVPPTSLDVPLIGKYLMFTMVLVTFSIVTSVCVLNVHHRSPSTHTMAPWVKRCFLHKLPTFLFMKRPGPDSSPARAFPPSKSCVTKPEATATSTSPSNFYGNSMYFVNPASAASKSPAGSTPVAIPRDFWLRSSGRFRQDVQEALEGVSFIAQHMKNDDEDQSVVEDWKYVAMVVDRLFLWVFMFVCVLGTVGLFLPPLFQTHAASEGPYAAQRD

h5-HT2A = h5-HT2A (Homo sapiens, UniProt P28223); test: IP1 functional assay, agonist; assay type: cell-based; conditions: up to 10 µM
h5-HT2A, sequence (P28223 whole entry): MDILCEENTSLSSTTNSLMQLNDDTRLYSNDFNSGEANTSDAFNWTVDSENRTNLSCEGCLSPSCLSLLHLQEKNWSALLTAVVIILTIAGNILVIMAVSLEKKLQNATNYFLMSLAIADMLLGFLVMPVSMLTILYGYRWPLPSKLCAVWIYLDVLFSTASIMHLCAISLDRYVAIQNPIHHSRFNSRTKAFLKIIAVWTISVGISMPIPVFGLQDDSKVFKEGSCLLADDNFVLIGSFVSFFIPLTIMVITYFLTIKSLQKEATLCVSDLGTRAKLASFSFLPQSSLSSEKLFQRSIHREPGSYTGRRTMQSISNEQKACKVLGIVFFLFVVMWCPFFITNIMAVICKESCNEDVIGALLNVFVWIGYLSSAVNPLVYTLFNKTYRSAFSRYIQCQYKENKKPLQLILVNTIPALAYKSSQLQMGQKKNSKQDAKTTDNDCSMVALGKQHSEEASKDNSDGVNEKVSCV

hSERT = molecular target: T4, hSERT (Homo sapiens, UniProt P31645); test: hSERT inhibition assay (APP+ fluorescence uptake); assay type: cell-based
T4 construct: expressed in transfected cells
T4 sequence (P31645 whole entry): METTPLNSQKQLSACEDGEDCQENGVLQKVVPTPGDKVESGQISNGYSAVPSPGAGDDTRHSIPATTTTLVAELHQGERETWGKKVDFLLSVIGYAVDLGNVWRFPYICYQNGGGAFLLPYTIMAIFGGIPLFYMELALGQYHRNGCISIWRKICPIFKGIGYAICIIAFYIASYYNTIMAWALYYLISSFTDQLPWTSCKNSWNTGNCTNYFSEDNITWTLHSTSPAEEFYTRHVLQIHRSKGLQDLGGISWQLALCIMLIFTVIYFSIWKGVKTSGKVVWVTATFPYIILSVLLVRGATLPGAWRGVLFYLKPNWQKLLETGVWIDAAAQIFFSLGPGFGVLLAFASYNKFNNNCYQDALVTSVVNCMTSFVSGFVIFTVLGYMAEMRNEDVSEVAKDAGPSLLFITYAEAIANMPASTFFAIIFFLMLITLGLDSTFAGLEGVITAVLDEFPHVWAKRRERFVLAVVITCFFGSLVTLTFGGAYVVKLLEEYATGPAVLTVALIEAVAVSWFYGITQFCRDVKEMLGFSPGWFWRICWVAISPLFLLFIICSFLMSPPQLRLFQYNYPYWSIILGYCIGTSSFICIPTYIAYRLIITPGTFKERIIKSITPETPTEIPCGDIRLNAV
Protocol: Stably transfected hSERT-HEK cellular cultures were maintained in Dulbecco’s Minimal Essential Medium (DMEM) with GlutaMAX (Gibco-Thermo Fisher Scientific, Waltham, MA) with the following additions: 10% (v/v) Fetal Bovine Serum (FBS, Atlanta Biologicals, Flowery Branch, GA), 100 U/mL Penicillin 10 μg/mL Streptomycin (Gibco-Thermo Fisher Scientific, Waltham, MA), and 500 μg/mL Geneticin (G418) (Sigma Aldrich, St. Louis, MO). Singly transfected cells were seeded at a density of 0.09 × 10^6 cells/well in poly-D-Lysine (Sigma Aldrich, St. Louis, MO) coated white solid-bottom 96-well plates (Greiner Bio-One, Kremsmünster, Austria). Cells were grown for 44 h in aqueous media at 37 °C under 5% CO2 atmosphere. […] A final solution of 120 μL of PBS was finally added to all corresponding wells for cell maintenance before measuring fluorescence uptake (BioTek H1MF plate reader (BioTek Instruments, Winooski, VT), APP+ excitation and emission wavelengths 436 and 500 nm). Recorded inhibitor values were first subtracted from vehicular values to quantify the respective fluorescence uptake. Data were analyzed using the dose-response-inhibitor nonlinear curve fitting model (log[inhibitor] vs response (four parameters) in Graphpad Prism 10 (Graphpad Software, La Jolla, CA).

hNOP = molecular target: T5, hNOP (Homo sapiens, UniProt P41146); test: human NOP (Orphanin ORL1) radioligand displacement; assay type: binding
T5 construct: purchased contracted research organization (eurofinsdiscoveryservices.com) item 260600
T5 sequence (P41146 whole entry): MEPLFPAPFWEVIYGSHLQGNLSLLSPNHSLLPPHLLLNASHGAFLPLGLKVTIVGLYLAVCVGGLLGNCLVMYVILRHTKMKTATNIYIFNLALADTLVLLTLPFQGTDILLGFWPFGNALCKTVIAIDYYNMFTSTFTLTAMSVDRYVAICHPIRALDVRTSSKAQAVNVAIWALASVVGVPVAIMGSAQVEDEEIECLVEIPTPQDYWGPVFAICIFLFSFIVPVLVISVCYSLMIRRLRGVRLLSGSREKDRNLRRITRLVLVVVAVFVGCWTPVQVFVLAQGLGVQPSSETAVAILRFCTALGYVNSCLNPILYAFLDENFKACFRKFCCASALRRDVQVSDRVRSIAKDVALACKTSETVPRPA

Compound: CCC1CC2CC3c4[nH]c5ccc(O)cc5c4CCN(C2)C13 (centres unmarked) [Noribogaine, Noribogaine hydrochloride]
- suppression of responding maintained by food on day 1 (male rats): > 80%
- effect on morphine self-administration (male Fisher F-344 rats; 40 mg/kg i.p.): partial, but statistically significant, suppression of morphine intake on days 2 and 3, returning to pre-treatment level of morphine intake on day 5
- self-administration per session, individual animals (Fig. S9a) (male Fisher F-344 rats; session 1): 0 (2×) and 4 (2×) and 8 and 6 (2×) and 2
- self-administration per session, individual animals (Fig. S9a) (male Fisher F-344 rats; session 2): 7 and 19 and 24 and 41 and 27 (2×) and 15 (2×)
- self-administration per session, individual animals (Fig. S9a) (male Fisher F-344 rats; session 3): 17 and 21 and 50 and 28
- self-administration per session, individual animals (Fig. S9a) (male Fisher F-344 rats; session 5): 49 and 40 and 50 (2×) and 36 (2×) and 31 and 21
- self-administration per session, individual animals (Fig. S9a) (male Fisher F-344 rats; session 6): 50 (5×) and 42 and 26 and 19
- self-administration per session, individual animals (Fig. S9a) (male Fisher F-344 rats; session 7): 29 (2×) and 15 and 50 (4×) and 17
- self-administration per session, individual animals (Fig. S9a) (male Fisher F-344 rats; session 8): 30 (2×) and 50 (4×) and 28 and 26
- self-administration per session, individual animals (Fig. S9a) (male Fisher F-344 rats; session 9): 26 and 35 and 50 (3×) and 22 and 28 and 13
- self-administration per session, individual animals (Fig. S9a) (male Fisher F-344 rats; session 10): 34 and 25 and 50 (3×) and 20 and 41 and 14
- self-administration per session, individual animals (Fig. S9a) (male Fisher F-344 rats; session 11): 33 and 19 and 50 (3×) and 9 and 26 and 3
- self-administration per session, individual animals (Fig. S9a) (male Fisher F-344 rats; session 12): 50 (5×) and 14 and 40 and 19
- self-administration per session, individual animals (Fig. S9a) (male Fisher F-344 rats; session 13): 50 (3×) and 23 and 33 and 28
- self-administration per session, individual animals (Fig. S9a) (male Fisher F-344 rats; session 14): 50 (3×) and 21 and 38 and 17
- self-administration per session, individual animals (Fig. S9a) (male Fisher F-344 rats; session 15): 50
- Emax (hKOR [1]): 73%
- EC50 (hKOR [1]; (95% CI)): 8.33 µM
- recovery at 4 h, 5 µM (in vitro): 75%
- fraction unbound (in vitro; plasma): 0.401
- response, Fig. S5b concentration-response point (replicates) (hKOR [2]; M = -4): 63.4148 and 52.568 and 43.4303 and -3.268 and 15.5992 and -3.578 and 46.3729 and 68.2306 and 65.5059
- response, Fig. S5b concentration-response point (replicates) (hKOR [2]; M = -5): 44.129 and 7.591 and 58.3969 and -7.944 and -3.52 and -16.5221 and 8.861 and 66.0772 and 47.0286
- response, Fig. S5b concentration-response point (replicates) (hKOR [2]; M = -6): 20.3519 and 3.61 and -1.914 and -21.4522 and 4.635 and -8.327 and 2.307 and 50.686 and 6.38
- response, Fig. S5b concentration-response point (replicates) (hKOR [2]; M = -7): -3.613 and 22.2417 and 10.4815 and -11.7203 and -7.426 and -8.634 and -0.3969 and 6.635 and -33.8028
- response, Fig. S5b concentration-response point (replicates) (hKOR [2]; M = -8): -6.02 and -4.0285 and -3.934 and -14.0445 and 2.721 and -12.2464 and 2.029 and -16.111 and -2.683
- response, Fig. S5b concentration-response point (replicates) (hKOR [2]; M = -9): 5.431 and -20.2939 and -8.392 and 0.6992 and -6.586 and -12.3198 and -2.633 and 36.0973 and 2.925
- response, Fig. S5b concentration-response point (replicates) (hKOR [2]; M = -10): 4.023 and 14.614 and -14.1911 and -26.8111 and -11.2252 and 12.0579 and -0.5811 and 6.156 and 9.5717
- response, Fig. S5b concentration-response point (replicates) (hKOR [2]; M = -11): -10.3398 and -7.2943 and -10.3521 and -20.7885 and 4.252 and -10.5358 and -2.026 and -5.486 and -20.474
- Emax (hKOR [2]; normalized to Emax of U-50,488): 46%
- response, Fig. S5c concentration-response point (replicates) (rKOR; M = -4): 0.6832 and -2.533 and 1.849 and 9.706 and 9.178 and 4.549 and -7.153 and 2.312 and 4.8409
- response, Fig. S5c concentration-response point (replicates) (rKOR; M = -5): 9.7994 and 6.733 and 8.435 and 9.706 and 10.7702 and 15.0341 and 0.9856 and -0.8825 and 4.299
- response, Fig. S5c concentration-response point (replicates) (rKOR; M = -6): 9.626 and 6.623 and 8.559 and 3.312 and 9.163 and -0.7272 and 9.077 and 6.531 and 9.714
- response, Fig. S5c concentration-response point (replicates) (rKOR; M = -7): 8.087 and 5.264 and 16.9405 and 8.98 and 10.0186 and 11.1512 and 4.05 and 6.477 and 19.1494
- response, Fig. S5c concentration-response point (replicates) (rKOR; M = -8): 10.1716 and 9.452 and 9.651 and 4.904 and -0.3201 and 10.6815 and 14.8896 and 2.949 and 7.869
- response, Fig. S5c concentration-response point (replicates) (rKOR; M = -9): 2.743 and 3.189 and 8.9111 and 2.535 and 1.402 and 3.813 and 4.639 and -0.2876 and 6.5008
- response, Fig. S5c concentration-response point (replicates) (rKOR; M = -10): 4.986 and 10.7522 and 12.8464 and -2.314 and -2.554 and 4.868 and 5.9 and 1.688 and 15.6928
- response, Fig. S5c concentration-response point (replicates) (rKOR; M = -11): 8.177 and 6.107 and 7.7052 and 7.712 and 6.632 and -6.719 and 26.9849 and 11.0819 and 18.0666
- % effect at 100 µM (rKOR; at 100 µM): < 4%
- IC50 [3]: 5 µM
- IC50 ([3]; electrophysiology, n = 1, (95% CI)): 4.96 µM
- agonist activity at h5-HT2R (h5-HT2A): No agonist activity
- Emax (hSERT): 104%
- % displacement at 10 µM (hNOP; at 10 µM, n = 1): < 0%
- binding affinity for nociceptin receptor (ORL-1/NOP) (hNOP; up to 10 µM): No binding affinity

Source: publication PMC11415492 (Nature Communications, 2024)
